Assay results from patent publication US20100076017A1, “SITAMAQUINE TOSYLATE FOR THE TREATMENT OF LEISHMANIASIS” (priority 2006, published 2010).
Counter-ions that a name gives are not always drawn.

Assay: hygroscopicity / developability characteristics of the salt form
Assay type: physicochemical
Details: solid salt form; poor developability characteristics
Source text: This means that reproducibility of standard batches of drug is very difficult, and that the drug would have a very short shelf life in those countries where it is particularly needed.

relative humidity at which the salt is hygroscopic: about 60 % relative humidity
Compound: CCN(CC)CCCCCCNc1cc(OC)cc2c(C)ccnc12 [dihydrochloride salt, N,N-diethyl-N′-(6-methoxy-4-methyl-8-quinolinyl)-1,6-hexane diamine]
